For 14 molecules, TGI results are on record in PubChem BioAssay (NCI).

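Dose response: 5 concentrations. Exposure: 48 h. Format: 96-well plates. Endpoint: linear interpolation; highest concentration if not reached. TGI: total growth inhibition.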

Assay in all cases: NCI anticancer screen, dose series, 48 h
The subject of assay [1] is A549 NSCLC.
The test system of assay [2] is ACHN renal.
Assay [3] relates to CAKI-1 renal.
The test system of assay [4] is EKVX NSCLC.
Assay [5] relates to HCT-15 colon.
Assay [6] has as its system HL-60(TB) leukemia.
For assay [7], the system named is HOP-92 NSCLC.
The subject of assay [8] is HT29 colon.
Assay [9] has as its system IGROV1 ovarian.
Assay [10] relates to KM12 colon.
For assay [11], the system named is NCI-H23 lung.
Assay [12] relates to NCI-H460 lung.
The test system of assay [13] is NCI/ADR-RES ovarian.
The test system of assay [14] is OVCAR-5 ovarian.
The test system of assay [15] is PC-3 prostate.
Assay [16] concerns SK-MEL-5 melanoma.
The subject of assay [17] is SNB-19 CNS.
Assay [18] has as its system UACC-62 melanoma.
Assay [19] concerns UO-31 renal.

For the molecule `CCn1c(-c2ccc(C)cc2)cs/c1=N\C(P(=O)(O)O)P(=O)(O)O`, the TGI in assay [1], in [2], in assay [3], in assay [4], in assay [5] and in assay [6] was > 100 µM throughout. Moreover, the TGI in assay [7], in assay [8], in assay [9], in assay [10], in assay [11] and in [12] was > 100 µM each time. The TGI in [13], in assay [14], in assay [15], in [16], in assay [17] and in [18] was > 100 µM each time. In addition, the TGI in [19] was > 100 µM.

Consider `COc1cccc2c1C(=O)c1c(O)c3c(c(O)c1C2=O)C[C@@](O)(/C(C)=N/NC(=O)c1ccccc1)C[C@@H]3OC1CC(N)C(O)C(C)O1` (stereo partly specified), for which the TGI in assay [1] is 4.25 µM; in assay [2], 0.975 µM; in assay [3], 1.47 µM; in assay [4], 3.02 µM; in assay [5], 19.9 µM; in assay [6] it was 0.771 µM. In addition, the TGI in assay [7] is 1.11 µM; in [8] it was 6.04 µM; in assay [9], 6.35 µM; in assay [10], 6.64 µM; in assay [11], 1.54 µM; in assay [12], 3.55 µM. Moreover, the TGI in assay [13] was found to be 76 µM; in assay [14], 4.73 µM; in [15] it was 1.75 µM; in assay [16], 0.74 µM; in assay [17], 7.86 µM; in assay [18], 1.19 µM. In assay [19], this molecule registered a TGI of 8.69 µM.

With `CC(=O)O[C@H]1CC[C@@]2(C)C(=CC[C@@H]3[C@@H]2CC[C@]2(C)c4c(cc(C#N)c(=N)n4C(C)=O)C[C@@H]32)C1`, the TGI in [1] came to 64.8 µM; in [2], 47.8 µM; in assay [3], 95.8 µM; in assay [4], 43.2 µM; in assay [5] it was 29.4 µM; in assay [6], 36 µM. For the same molecule, the TGI in [7] came to 59.8 µM; in assay [8], 43.5 µM; in [9], 53.3 µM; in assay [10], 32.8 µM; in [11] it was 32.1 µM; in [12], 30.3 µM. For the same molecule, the TGI worked out at 39.6 µM in [13]; 74.7 µM in assay [14]; 54.6 µM in assay [15]; 29.7 µM in assay [16]; 89 µM in assay [17]; 29.7 µM in assay [18]. In assay [19], this molecule showed a TGI of 52.8 µM.

Consider `COC(=O)c1ccc(CCc2cc(O)c(Br)cc2O)cc1`, for which the TGI was 50.5 µM in assay [1]; 25.9 µM in assay [2]; 23.2 µM in [3]; 31.3 µM in assay [4]; 26.1 µM in [5]; 4.65 µM in assay [6]. The TGI in assay [7] was 28.2 µM; in [8], 32.8 µM; in assay [9], 28.5 µM; in [10] it was > 55.3 µM; in assay [11] it was 15.4 µM; in assay [12], 33.3 µM. Further, the TGI turned out to be 43.2 µM in assay [13]; 33.8 µM in assay [14]; 20.6 µM in assay [15]; 23.7 µM in assay [16]; 33.1 µM in assay [17]; 27.1 µM in assay [18]. This molecule also gave a TGI in assay [19] of 18.1 µM.

Take `COC(OC)(c1ccccc1)C(I)I`: the TGI is 43.6 µM in [1]; 31.9 µM in assay [2]; 24.1 µM in assay [3]; 16.9 µM in assay [4]; 18.5 µM in [5]; 20.4 µM in [6]. Moreover, the TGI was determined as 26.7 µM in [7]; 34.9 µM in [8]; 27.4 µM in [9]; 40.1 µM in assay [10]; 50.7 µM in [11]; 37.7 µM in [12]. Further, the TGI is > 59.7 µM in assay [13]; 33.1 µM in assay [14]; 30.7 µM in assay [15]; 21.9 µM in [16]; > 71 µM in assay [17]; 26.6 µM in assay [18]. In assay [19], this molecule yielded a TGI of 29.8 µM.

Consider `COC1(OC)C2(Cl)C(Cl)=C(Cl)C1(Cl)C1COCC12` (stereo unspecified), for which the TGI in assay [1], in assay [2], in [3], in assay [4], in [5] and in assay [6] was > 100 µM each time. In addition, the TGI in assay [7] was > 100 µM; in assay [8], > 100 µM; in assay [9], > 100 µM; in [10], > 100 µM; in assay [11], > 71.2 µM; in [12], > 100 µM. Besides, the TGI in assay [13], in [14], in assay [15], in assay [16], in assay [17] and in assay [18] was > 100 µM each time. In assay [19], the TGI was > 100 µM.

For the molecule `COc1ccc(CCc2ccc(O)c(C(=O)O)c2)cc1OC`, the TGI in [1], in [2], in [3], in assay [4], in assay [5] and in [6] was > 100 µM each time. For the same molecule, the TGI in [7], in assay [8], in assay [9], in assay [10], in assay [11] and in assay [12] was > 100 µM in each case. Moreover, the TGI in assay [13], in assay [14], in assay [15], in assay [16], in assay [17] and in [18] was > 100 µM throughout. Moreover, the TGI in assay [19] is > 100 µM.

On to `CC1=C(C(=O)NCC(C)O)CC(C(=O)NCC(C)O)=C(C)N1` (stereo unspecified), for which the TGI in assay [1], in [2], in [3], in assay [4], in [5] and in assay [6] was > 100 µM throughout. In addition, the TGI in assay [7], in [8], in assay [9], in [10], in assay [11] and in assay [12] was > 100 µM in each case. The TGI in [13], in assay [14], in [15], in assay [16], in [17] and in assay [18] was > 100 µM each time. Further, in assay [19], the TGI was > 100 µM.

Turning to `COc1cc(C2SCC(=O)N2c2ccc(Cl)cc2)cc(I)c1O` (stereo unspecified), the TGI in assay [1], in assay [2], in [3], in assay [4], in assay [5] and in assay [6] was > 100 µM throughout. Further, the TGI in assay [7], in [8], in [9], in [10], in assay [11] and in [12] was > 100 µM in each case. Moreover, the TGI in [13] is > 100 µM; in assay [14], > 100 µM; in [15] it was > 100 µM; in [16] it was > 100 µM; in [17], > 100 µM; in assay [18], > 28.5 µM. The TGI in assay [19] was > 100 µM.

Take `CC(C)CC1[C@@H](OCc2ccccc2)COS(=O)(=O)N1Cc1ccccc1` (stereo partly specified): the TGI in [1], in [2], in [3], in assay [4], in [5] and in assay [6] was > 100 µM each time. Further, the TGI in assay [7] was > 100 µM; in [8] it was > 100 µM; in assay [9], > 100 µM; in assay [10], > 100 µM; in [11], 75.2 µM; in assay [12] it was > 100 µM. For the same molecule, the TGI in assay [13], in assay [14], in assay [15], in assay [16], in assay [17] and in assay [18] was > 100 µM in each case. Moreover, in assay [19], the TGI was determined as 97.6 µM.

As to `Cc1ccc2cccc3c2c1CC1(C3=O)S(=O)(=O)OCCOS1(=O)=O`, the TGI in [1], in assay [2], in [3], in assay [4], in assay [5] and in assay [6] was > 100 µM in each case. The TGI in assay [7], in assay [8], in assay [9], in [10], in assay [11] and in assay [12] was > 100 µM throughout. For the same molecule, the TGI in [13], in assay [14], in assay [15], in assay [16], in assay [17] and in assay [18] was > 100 µM each time. The TGI in assay [19] was > 100 µM.

On to `N#CC(N=Nc1ccccc1)c1nc2ccccc2o1` (stereo unspecified), for which the TGI in assay [1] was > 100 µM; in [2], 56.4 µM; in assay [3], > 100 µM; in assay [4] it was > 100 µM; in assay [5], > 100 µM; in assay [6] it was > 100 µM. Further, the TGI was 46.7 µM in assay [7]; > 100 µM in assay [8]; 42.9 µM in assay [9]; > 100 µM in assay [10]; 43.9 µM in assay [11]; > 100 µM in assay [12]. Further, the TGI was 64 µM in assay [13]; > 100 µM in [14]; > 100 µM in assay [15]; > 100 µM in assay [16]; > 100 µM in assay [17]; > 100 µM in assay [18]. In addition, in [19], the TGI is > 100 µM.

Regarding `CCOC(=O)COc1c(OC)cc(C2C3=C(COC3=O)Oc3cc4c(cc32)OCO4)cc1OC` (stereo unspecified), the TGI in [1] was > 100 µM; in assay [2] it was > 45.8 µM; in assay [3], 38.1 µM; in assay [4], > 100 µM; in assay [5] it was > 100 µM; in assay [6], 0.539 µM. The TGI in [7] is > 45.1 µM; in assay [8], 8.29 µM; in assay [9] it was 33.7 µM; in assay [10] it was > 100 µM; in assay [11] it was 14.2 µM; in assay [12], 49.4 µM. In addition, the TGI in [13] is > 37.3 µM; in assay [14], > 100 µM; in assay [15] it was > 100 µM; in assay [16], 13.8 µM; in assay [17] it was > 100 µM; in [18], > 31.6 µM. The TGI in assay [19] was > 100 µM.

Take `Cc1ccc([N+](=O)[O-])cc1S(=O)(=O)Nc1ccc(C2=NNC(c3cccs3)C2)cc1` (stereo unspecified): the TGI in assay [1] is > 100 µM; in assay [2] it was 82.9 µM; in assay [3], > 100 µM; in assay [4] it was 64.2 µM; in assay [5], > 100 µM; in [6] it was 50.9 µM. The TGI in assay [7] was > 100 µM; in assay [8], > 100 µM; in [9], > 100 µM; in assay [10], 76.1 µM; in [11], > 100 µM; in [12] it was > 100 µM. Also, the TGI in assay [13] was 94.6 µM; in assay [14] it was > 100 µM; in assay [15] it was > 100 µM; in assay [16], 46.3 µM; in assay [17] it was > 100 µM; in assay [18], 34.1 µM. Further, in assay [19], the TGI is > 100 µM.
